The series in a line: in vitro. To be noted: human. It counts as cell-based. Here is the method: To assess the activity of compounds against HIV-1 strains having resistance to various ART drugs, assays were performed in the context of CEM-GXR cells. These cells express CD4, CXCR4, and coreceptor, CCR5 as well as an exogenous Tat-driven LTR-GFP expression cassette. Cultures were infected with different HIV-1 strains of interest, differing on their subtypes (A and B), and resistance to three major drug targets (reverse transcriptase, protease, and integrase). The culture contains serial dilutions of the molecule in the final concentrations from 0.156 to 5 μM for 833; 725 nM to 46.87 μM for 791; 1.95 to 62.5 μM for 892. Antiviral activity was evaluated in the assay by measuring inhibition of HIV-1 spread in a coculture of CEM-GXR cells containing 1% of HIV-1 infected (GFP positive) cells using flow cytometric analysis (GuavaSoft 2.2 software, Guava HT8, Millipore). To estimate the viable cell counts, the gate in a flow cytometer (Guava HT8) was set to cover 95% of the freshly passaged uninfected CEM-GXR cell or using ViaCount™. The same parameter was employed to gate viable cells in the inhibition assay and the number of gated cells was obtained by GuavaSoft 2.2 software. For assays using ViaCount™, sample acquisition and data analysis were performed with the selection of EasyFit analysis feature using the ViaCount™ software module.
Additional file 1: Figure S1. […] Cell viability was measured by an XTT assay. […] Cells were analyzed after 24 h incubation with the compounds at the indicated concentrations ranging between 0–47 μM (791), 0–5 μM (833), or 0–62.5 μM (892). Results are expressed as the percentage (%) of viable cells relative to DMSO treatment ±SEM of two independent experiments performed in triplicate. […] Images are cropped to show a representative field of view. b The dose range of the compounds which inhibit HIV-1 GagGFP expression in HeLa rtTA HIVGagGFP C7 cells was measured by mean fluorescence intensity and expressed relative to fluorescence intensity in DMSO-treated samples (N ≥ 3, *p ≤ 0.05, **p ≤ 0.01, and ***p ≤ 0.001). […]

As usually defined, the CC50 is the concentration at which the toxic effect on the cells reaches its halfway point. `Cc1cc(NCc2cccnc2)n2ncc(-c3ccc(Cl)cc3)c2n1` [Compound 791, 3-(4-chlorophenyl)-5-methyl-N-(3-pyridinylmethyl)pyrazolo[1,5-a]pyrimidin-7-amine] yielded a CC50 at 24 h of 24 µM. The result for `COc1ccc(C=NNC(=O)c2ccccc2O)cc1O` [Compound 892, 2-hydroxy-N′-(3-hydroxy-4-methoxybenzylidene)benzohydrazide] reads 60 µM; that for `O=C(NC(=S)NNC(=O)c1ccccc1O)c1ccc(-c2ccccc2)cc1` [Compound 833, N-([2-(2-hydroxybenzoyl)hydrazino]carbonothioyl}-4-biphenylcarboxamide], above 5 µM.

These data come from publication PMC5267425, “Identification of small molecule modulators of HIV-1 Tat and Rev protein accumulation” (Retrovirology, 2017).
